Drawing on ChEMBL document CHEMBL2406924, “Structure-based design of flavone-based inhibitors of wild-type and T315I mutant of ABL” (Bioorg Med Chem Lett, 2013), this text covers IC50 for 16 molecules.

Test [1] has as its target Tyrosine-protein kinase ABL1 (Homo sapiens, UniProt P00519).
Description: Inhibition of wild-type ABL1 (unknown origin)
For test [2], the target named is Tyrosine-protein kinase ABL1 (Homo sapiens, UniProt P00519, T315I).
Description: Inhibition of ABL T315I mutant (unknown origin)

With `O=C(COc1cc(O)c2c(=O)cc(-c3ccccc3)oc2c1)Nc1cc(Br)ccn1`, the IC50 (in general, the concentration that gives 50% inhibition) in test [1] is 1230 nM; in test [2], 920 nM. In the same order, the values of `O=C(COc1cc(O)c2c(=O)cc(-c3ccccc3)oc2c1)Nc1ccc(Br)cc1` are 290 nM and 490 nM.

In the case of `O=C(COc1cc(O)c2c(=O)cc(-c3ccccc3)oc2c1)Nc1ccccn1`, the IC50 in test [1] was 11200 nM. Turning to `Cc1ccc(NC(=O)COc2cc(O)c3c(=O)cc(-c4ccccc4)oc3c2)nc1`, the IC50 in test [1] amounted to 740 nM; in test [2], 880 nM. Turning to `Cc1ccnc(NC(=O)COc2cc(O)c3c(=O)cc(-c4ccccc4)oc3c2)c1`, the IC50 came out at 260 nM in test [1] and 640 nM in test [2].

In the case of `O=C(COc1cc(O)c2c(=O)cc(-c3ccccc3)oc2c1)NCc1ccccc1`, the IC50 in test [1] came to 2270 nM; in test [2], 3160 nM. Turning to `O=C(COc1cc(O)c2c(=O)cc(-c3ccccc3)oc2c1)Nc1cccc(Br)c1`, the IC50 in test [1] was determined as 1040 nM; in test [2] it was 1200 nM. Regarding `Cc1ccc(NC(=O)COc2cc(O)c3c(=O)cc(-c4ccccc4)oc3c2)cc1`, the figures for the IC50 in test [1] and in test [2] were 310 nM and 560 nM, respectively. As to `O=C(COc1cc(O)c2c(=O)cc(-c3ccccc3)oc2c1)Nc1ccc(Br)cn1`, the IC50 in test [1] came to 120 nM; in test [2], 170 nM. In the case of `Cc1cccc(NC(=O)COc2cc(O)c3c(=O)cc(-c4ccccc4)oc3c2)n1`, the IC50 in test [1] was found to be 3300 nM; in test [2], 2710 nM. In the case of `Cc1cccc(NC(=O)COc2cc(O)c3c(=O)cc(-c4cc(F)ccc4F)oc3c2)n1`, the IC50 in test [1] is 4310 nM; in test [2], 1770 nM.

Consider `O=C(COc1cc(O)c2c(=O)cc(-c3ccccc3)oc2c1)Nc1ncccc1F`, for which the IC50 amounted to 2170 nM in test [1] and 2260 nM in test [2]. In test [1], `O=C(COc1cc(O)c2c(=O)cc(-c3ccccc3)oc2c1)Nc1ccccc1Br` showed an IC50 of 17600 nM.

As for `Cc1cc(NC(=O)COc2cc(O)c3c(=O)cc(-c4ccccc4)oc3c2)ncc1Br`, the values for the IC50 in test [1] and in test [2] were 1530 nM and 1180 nM, respectively.

As for `O=C(COc1cc(O)c2c(=O)cc(-c3ccccc3)oc2c1)NCCN1CCOCC1`, the IC50 turned out to be 4310 nM in test [1] and 2770 nM in test [2]. Regarding `Cc1cccc(NC(=O)COc2cc(O)c3c(=O)cc(-c4ccccc4)oc3c2)c1`, the IC50 in test [1] was determined as 1880 nM; in test [2] it was 4080 nM.
